Reference: article PMC6428247, “Potent inhibitors of equine steroid isomerase EcaGST A3-3” (PLoS ONE, 2019)
“And” between values parts separate entries of the source, which are not always exact repeats. Equal values may be shown once. Where a name gives a salt, the structure may show the parent alone.

Legend:
[1] = biological target: T1, EcaGST A3-3 (Equus caballus, UniProt M9ZT87); assay: Inhibition of EcaGST A3-3 activity, GSH conjugation with CDNB; type: biochemical, Equus ferus caballus; settings: for inhibition at 10 µM: read-out: Inhibition (%) of EcaGST A3-3; for IC50: read-out: IC50 EcaGST A3-3, substrate CDNB; for Hill coefficient, CDNB inhibition: dose-response curve, substrate CDNB, mean ± SD
Method: The final solvent concentration in the reaction system was kept at 5% (v/v) as a maximum.
(§1) The conjugation of GSH with the electrophilic substrate CDNB was used as a biochemical assay for general activity measurements. Screening of the US Drug library for inhibition was done in triplicates in 96-well plates in a Thermo Scientific Multiskan GO spectrophotometer. The conjugation activity at 30°C was monitored at 340 nm for 1 min in 0.1 M sodium phosphate buffer at pH 6.5 and 10 μM inhibitor concentration in a final volume of 300 μL. Initial concentrations of GSH and CDNB were 1 mM.
Assay conditions for inhibition measurements of enzyme activity with CDNB were the following: EcaGST A3-3 15 nM, initial concentrations of GSH and CDNB 1 mM, inhibitor concentrations varying from 0.029 μM to 15 μM, in 100 mM Na2HPO4/NaH2PO4 at pH 6.5.
The reactions were followed spectrophotometrically for 1 min at 30°C using a Shimadzu UV-2501 PC spectrophotometer (Shimadzu Inc.). All experiments included triplicate measurements in each data point.
The equation for competitive inhibition fitted by non-linear regression was v=Vmax[S]/KM(1+[I]/Ki)+[S] where [S] is the substrate concentrations and [I] is the inhibitor concentration.

[2] = tested on: HsaGST S1-1; design: method as in PMID 25603235; settings: 1 mM GSH, 1 mM CDNB, pH 6.5, 30°C, cited from earlier work; for Inhibition (%) of HsaGST S1-1: 10 μM inhibitor; for IC50: CDNB activity
[3] = tested on: HsaGST P1-1; design: method as in PMID 23769903; settings: 3.3 μM inhibitor, 1 mM GSH, 1 mM CDNB, pH 6.5, 30°C; cited from earlier work
[4] = biological target: T1, EcaGST A3-3; assay: Inhibition of EcaGST A3-3 steroid double-bond isomerase activity with Δ^5-AD; type: biochemical, Equus ferus caballus; settings: for Hill coefficient, Δ^5-AD inhibition: dose-response curve, substrate Δ^5-AD, mean ± SD
[5] = biological target: T2, HsaGST A3-3 (Homo sapiens, UniProt Q16772); assay: Inhibition of HsaGST A3-3 CDNB activity; type: biochemical; settings: 1 mM GSH, 1 mM CDNB, pH 6.5, 30°C; for IC50: CDNB activity; for inhibition at 10 µM: pH 6.5, 10 μM inhibitor, read-out: Inhibition (%) of HsaGST A3-3
T2 construct: made in house
T2 sequence (Q16772 1-222): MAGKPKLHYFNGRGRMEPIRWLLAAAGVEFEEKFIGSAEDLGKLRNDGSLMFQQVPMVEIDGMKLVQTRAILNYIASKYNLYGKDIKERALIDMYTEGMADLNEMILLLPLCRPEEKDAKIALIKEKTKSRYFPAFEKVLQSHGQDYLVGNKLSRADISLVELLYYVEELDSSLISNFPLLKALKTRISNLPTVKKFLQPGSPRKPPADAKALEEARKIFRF
Method: (§2) EcaGST A3-3 [10], HsaGST A3-3 [12] and HsaGST M2-2 [13] were cloned, expressed and purified as described previously. Protein concentration was determined by means of the Bradford assay.
as §1
(§3) For understanding the effects of pharmacological interventions based on GST inhibitors, it is important to know the selectivity among the numerous GSTs. […] All values were determined with CDNB, which is a common substrate for all the enzymes.

[6] = biological target: T3, HsaGST M2-2 (Homo sapiens, UniProt P28161); assay: Inhibition of HsaGST M2-2 CDNB activity; type: biochemical; settings: 1 mM GSH, 1 mM CDNB, pH 6.5, 30°C; for IC50: CDNB activity, read-out: IC50 HsaGST M2-2; for inhibition at 10 µM: 10 μM inhibitor, read-out: Inhibition (%) of HsaGST M2-2
T3 construct: made in house
T3 sequence (P28161 1-218): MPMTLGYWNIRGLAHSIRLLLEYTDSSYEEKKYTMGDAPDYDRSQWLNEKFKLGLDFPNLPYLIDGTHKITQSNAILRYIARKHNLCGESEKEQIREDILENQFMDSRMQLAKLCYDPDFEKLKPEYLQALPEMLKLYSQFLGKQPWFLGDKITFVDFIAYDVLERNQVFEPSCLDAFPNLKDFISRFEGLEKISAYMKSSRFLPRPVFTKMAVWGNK
Method: as §2, §1, §3

[7] = 10 μM inhibitor, 1 mM GSH, 1 mM CDNB, sodium phosphate pH 6.5, 30°C
[8] = 0.1 mM Δ^5-AD, 1 mM GSH, 25 mM sodium phosphate pH 8.0, 30°C
[9] = 1 mM CDNB, 1 mM GSH, 100 mM sodium phosphate pH 6.5, 30°C

T1 sequence (M9ZT87 entry or part of it): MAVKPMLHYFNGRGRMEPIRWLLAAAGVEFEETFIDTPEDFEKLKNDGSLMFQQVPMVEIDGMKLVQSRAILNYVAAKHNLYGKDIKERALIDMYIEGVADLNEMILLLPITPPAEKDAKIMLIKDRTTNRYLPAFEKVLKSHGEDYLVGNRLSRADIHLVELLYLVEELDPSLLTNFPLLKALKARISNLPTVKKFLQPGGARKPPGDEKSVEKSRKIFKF

Oc1c(I)cc(Cl)c2cccnc12 [Clioquinol]
inhibition at 10 µM [1, 7]: 64 ± 21%

O=[N+]([O-])c1ccc(Cl)c([N+](=O)[O-])c1 [CDNB, 1-chloro-2,4-dinitrobenzene]
Km ([1]; read-out: Km of substrate CDNB with EcaGST A3-3, 1 mM GSH, fitted with and without ethacrynic acid): 1260 ± 82 µM

O=C(OCC1OC(OC(=O)c2cc(O)c(O)c(OC(=O)c3cc(O)c(O)c(O)c3)c2)C(OC(=O)c2cc(O)c(O)c(OC(=O)c3cc(O)c(O)c(O)c3)c2)C(OC(=O)c2cc(O)c(O)c(OC(=O)c3cc(O)c(O)c(O)c3)c2)C1OC(=O)c1cc(O)c(O)c(OC(=O)c2cc(O)c(O)c(O)c2)c1)c1cc(O)c(O)c(OC(=O)c2cc(O)c(O)c(O)c2)c1 (centres unmarked) [Tannic acid]
Inhibition (%) of HsaGST S1-1 [2]: 100%
IC50 [2]: 0.35 µM
Inhibition (%) of HsaGST P1-1 [3]: < 4%
IC50 EcaGST A3-3, substrate Δ^5-AD [4, 8]: submicromolar range
Hill coefficient, Δ^5-AD inhibition [4]: 2.1±0.63
IC50 ([4]; read-out: IC50 EcaGST A3-3, substrate Δ^5-AD, 0.1 mM Δ^5-AD, 1 mM GSH, 25 mM sodium phosphate pH 8.0, 30°C): 0.22 ± 0.034 µM
IC50 [1, 9]: 0.33 ± 0.018 µM
Hill coefficient, CDNB inhibition [1]: 2.2±0.23
IC50 [5]: 0.21 µM
IC50 [6]: 1.2 µM

CC[C@H]1OC(=O)[C@H](C)[C@@H](O[C@H]2C[C@@](C)(OC)[C@@H](O)[C@H](C)O2)[C@H](C)[C@@H](O[C@@H]2O[C@H](C)C[C@H](N(C)C)[C@H]2O)[C@](C)(OC)C[C@@H](C)C(=O)[C@H](C)[C@@H](O)[C@]1(C)O [Clarithromycin]
inhibition at 10 µM [1, 7]: 36 ± 7%

C=C1C[C@@H]2[C@H](CC[C@]3(C)C(=O)CC[C@@H]23)[C@@]2(C)C=CC(=O)C=C12 [Exemestane]
inhibition at 10 µM [1, 7]: 41 ± 12%

C[C@]12CC[C@@H]3c4ccc(OS(=O)(=O)O)cc4CC[C@H]3[C@@H]1CCC2=O [Estropipate]
inhibition at 10 µM [1, 7]: 37 ± 23%

CCc1ccc(CCOc2ccc(CC3SC(=O)NC3=O)cc2)nc1 (centres unmarked) [Pioglitazone]
IC50 [6]: 5.9 µM

O=C(Nc1ccc(C(=O)O)c(O)c1)c1ccccc1 [Benzoylpas]
IC50 [6]: 2.5 µM

Nc1ccc(C(=O)[O-])cc1.[K+] [Potassium p-aminobenzoate]
Inhibition (%) of EcaGST A3-3 [1, 7]: 30±16%

C[n+]1cc2c3c(ccc2c2ccc4cc5c(cc4c21)OCO5)OCO3 [Sanguinarine sulfate]
inhibition at 10 µM [1, 7]: 47 ± 19%

OCCOCCN1CCN(C(c2ccccc2)c2ccc(Cl)cc2)CC1 (centres unmarked) [Hydroxyzine pamoate]
inhibition at 10 µM [1, 7]: ≤ 30%
IC50 [6]: 0.76 µM

Cc1ccc(C(=O)Nc2ccc(S(=O)(=O)O)c3cc(S(=O)(=O)O)cc(S(=O)(=O)O)c23)cc1NC(=O)c1cccc(NC(=O)Nc2cccc(C(=O)Nc3cc(C(=O)Nc4ccc(S(=O)(=O)O)c5cc(S(=O)(=O)O)cc(S(=O)(=O)O)c45)ccc3C)c2)c1 [Suramin]
IC50 [2]: 0.3 µM
inhibition at 10 µM [1, 7]: ≤ 30%
IC50 [6]: 0.62 µM

CN1CCCN=C1/C=C/c1cccc(O)c1 [Oxantel pamoate]
IC50 [6]: 1.7 µM

CC(C)/N=c1\cc2n(-c3ccc(Cl)cc3)c3ccccc3nc-2cc1Nc1ccc(Cl)cc1 [Clofazimine]
inhibition at 10 µM [1, 7]: 52 ± 14%

O=C1c2c(O)cccc2Cc2cccc(O)c21 [Anthralin]
Inhibition (%) of HsaGST S1-1 [2]: 84%
IC50 [2]: 24 µM
Inhibition (%) of HsaGST P1-1 [3]: 22%
IC50 [4]: 0.085 ± 0.0048 µM
IC50 EcaGST A3-3, substrate Δ^5-AD [4, 8]: submicromolar range
Ki ([4]; Ki, EcaGST A3-3, substrate Δ^5-AD, Δ^5-AD varied, 1 mM GSH, 0.09 μM inhibitor): 0.09 µM and 0.093 µM
Hill coefficient, Δ^5-AD inhibition [4]: 1.9±0.19
Times more potent with Δ^5-AD as substrate than with CDNB ([4]; ratio of IC50 values CDNB vs Δ^5-AD, EcaGST A3-3): approximately 25 times
Inhibition modality, substrate Δ^5-AD ([4]; Δ^5-AD varied, 1 mM GSH): Competitive
inhibition at 10 µM [1, 7]: 96 ± 1.8%
IC50 [1, 9]: 2.1 ± 0.27 µM
Hill coefficient, CDNB inhibition [1]: 2.0±0.43
IC50 [5]: 0.72 µM
inhibition at 10 µM [5]: 88%
inhibition at 10 µM [6]: 80%

Cc1cc(/C=C/c2ccc3cc(N(C)C)ccc3[n+]2C)c(C)n1-c1ccccc1 [Pyrvinium pamoate]
IC50 [6]: 1.2 µM

CN1CCCN=C1/C=C/c1cccs1 [Pyrantel pamoate]
IC50 [6]: 1.4 µM

COC(=O)C1=C(C)NC(C)=C(C(=O)OCC(C)C)C1c1ccccc1[N+](=O)[O-] (centres unmarked) [Nisoldipine]
Inhibition (%) of HsaGST S1-1 [2]: 42%
IC50 [2]: 29 µM
Inhibition (%) of HsaGST P1-1 [3]: 14%
IC50 EcaGST A3-3, substrate Δ^5-AD [4, 8]: Anomalous curve
inhibition at 10 µM [1, 7]: 75 ± 2.3%
IC50 EcaGST A3-3, substrate CDNB [1, 9]: Anomalous curve
IC50 [5]: 4.1 µM
inhibition at 10 µM [5]: 70%
inhibition at 10 µM [6]: 35%

CC(C)n1c(/C=C/C(O)CC(O)CC(=O)O)c(-c2ccc(F)cc2)c2ccccc21 (centres unmarked) [Fluvastatin sodium]
inhibition at 10 µM [1, 7]: 31 ± 24%

O=C(O)c1cc(/N=N/c2ccc(S(=O)(=O)Nc3ccccn3)cc2)ccc1O [Sulfasalazine]
inhibition at 10 µM [1, 7]: ≤ 30%
IC50 [6]: 0.3 µM

CC1=C(CC(=O)O)c2cc(F)ccc2/C1=C\c1ccc([S+](C)[O-])cc1 (centres unmarked) [Sulindac]
IC50 [6]: 23 µM

NCC(=O)CCC(=O)O [Aminolevulinic acid hydrochloride]
inhibition at 10 µM [1, 7]: 32 ± 11%

CCCCCCCCCCCCCCCC(=O)OC[C@@H](NC(=O)C(Cl)Cl)[C@H](O)c1ccc([N+](=O)[O-])cc1 [Chloramphenicol palmitate]
inhibition at 10 µM [1, 7]: 40 ± 1%

CC[C@H](C)C(=O)O[C@H]1C[C@@H](C)C=C2C=C[C@H](C)[C@H](CC[C@@H]3C[C@@H](O)CC(=O)O3)[C@H]21 [Lovastatin]
inhibition at 10 µM [1, 7]: 33 ± 15%

CC(C)NCC(O)c1cc(O)cc(O)c1 (centres unmarked) [Metaproterenol]
inhibition at 10 µM [1, 7]: 42 ± 24%

COC(=O)Nc1nc2ccc(C(=O)c3ccccc3)cc2[nH]1 [Mebendazole]
inhibition at 10 µM [1, 7]: 35 ± 15%

CCN(CCCc1ccccc1)CCCc1ccccc1 [Alverine citrate]
inhibition at 10 µM [1, 7]: 31 ± 17%
